Test results reported in patent publication US20200405728A1, “METHODS OF PREVENTING AND TREATING HYPOGLYCEMIA IN TYPE 1 AND TYPE 2 DIABETES PATIENTS” (Ferox Therapeutics LLC, priority 2018, published 2020).
Counter-ions that a name gives are not always drawn.

Tested on: 3D INSIGHT Islet Microtissues (primary human pancreatic islet cells)
Test: Glucagon secretion assay (glucagon ELISA) in 3D INSIGHT Islet Microtissues
Format: cell-based
Conditions: for dose dependency of the increase in glucagon secretion: Example 2, donor AFCS437, 1, 10 and 100 μM; for fold induction at 10 µM / fold induction at 100 µM: Homo sapiens, Pancreatic islet; for fold induction at 10 µM: donor AFBM114, 10 μM; for fold induction at 100 µM: donor AFBM114, 100 μM
From the text: This and the following example make use of 3D INSIGHT® Islet Microtissues (InSphero AG, Schlieren, Switzerland), an in vitro model system for diabetes research produced by optimized dissociation and controlled scaffold-free reaggregation of primary human pancreatic islet cells. This allows precise control over the newly forming islet microtissue size and eliminates contaminating exocrine material while ensuring homogeneous and native-like distribution of endocrine cells within each tissue. The resulting islet tissues display long-term (>28 days) and robust function, enabling high throughput and longitudinal study of pancreatic islet function, regulation, and preservation.
1. The diabetes model system 3D INSIGHT® Islet Microtissues was obtained from a donor. 2. […] 3. Six replicates for each sample were tested. 4. L-arginine was used as a positive control. 5. DMSO was used a solvent for BF2649 hydrochloride and cyproheptadine hydrochloride; ddH2O was used as a solvent for L-arginine. […] 6. Glucagon secretion was quantified with a glucagon ELISA (Mercodia, Uppsala, Sweden). 7. Total ATP content was also measured during the assay.
Referring to FIG. 5, a timeline (500) of the assay is shown. Day 0 (510) involved producing the 3D INSIGHT® Human Islet Microtissues. On Day 5 (520), the samples were moved to a receiving plate. On Day 7 (530), the islet size, viability, and function were verified by quality control. On the final day of the test (540), the glucagon secretion assay was performed with ELISA, and ATP content was measured.
Before the assay, conditioned media was removed, islet microtissue washed twice with Kreb's Ringer HEPES buffer (KRHB) containing 5.5 mM glucose and were equilibrated in KRHB containing 5-5 mM glucose for 1.5 hours. Equilibration buffer was removed, islet microtissues were washed twice in KRHB with 5-5 mM glucose. Glucagon secretion was performed in KRHB with either 8 mM or 1 mM glucose for 2 hours in the presence of the test compounds. Conditioned KRHB were collected for analysis of glucagon content with an ELISA (Mercodia, Uppsala, Sweden).
A second donor (UNOS ID #AFCS437) was used as well.
Before the assay, conditioned media was removed, islet microtissue washed twice with Kreb's Ringer HEPES buffer (KRHB) containing 5-5 mM glucose and were equilibrated in KRHB containing 5-5 mM glucose for 1.5 hours. Equilibration buffer was removed, islet microtissues were washed twice in KRHB with 5-5 mM glucose. Glucagon secretion was performed in KRHB with either 8 mM or 1 mM glucose for 2 hours in the presence of the test compounds. Conditioned KRHB were collected for analysis of glucagon content with an ELISA (Mercodia, Uppsala, Sweden).

[1] = Example 1, donor AFBM114, 2 hours
[2] = Example 1, donor AFBM114, 2 hours, compared to vehicle at 1 mM glucose (FIG. 6)

## Clc1ccc(CCCOCCCN2CCCCC2)cc1 [BF2649 hydrochloride, 1-{3-[3-(4-chlorophenyl)propoxy]propyl}piperidine]
Example 1, donor AFBM114, 1, 10 and 100 μM, 1 mM glucose
  dose dependence of the increase in glucagon secretion: dose dependent
[1]
  increase in glucagon secretion, 1 mM glucose versus 8 mM glucose: higher at 1 mM glucose than at 8 mM glucose
[2]
  glucagon secretion (effect): increased glucagon secretion
Example 2, donor AFBM114, 10 μM, 8 mM glucose (FIG. 8)
  glucagon secretion (effect): increased glucagon secretion
Example 2, donor AFBM114, 100 μM, 8 mM glucose (FIG. 8)
  glucagon secretion (effect): increased glucagon secretion
Example 2, donor AFCS437, 100 μM
  increase in glucagon secretion compared with 5 mM arginine: similarly to 5 mM arginine
  dose dependency of the increase in glucagon secretion: significant dose dependency
1 mM glucose (Example 1)
  fold induction at 10 µM: 1.8
  fold induction at 100 µM: 7.5
8 mM glucose (Example 2)
  fold induction at 10 µM: 1.8
  fold induction at 100 µM: 2
Previously tested donor (AFBM114), 100 μM
  increase in glucagon secretion compared with 5 mM arginine: similarly to 5 mM arginine

## O=C(O)COCCN1CCN(C(c2ccccc2)c2ccc(Cl)cc2)CC1 (stereo not drawn) [Cetirizine, cetirizine dihydrochloride]
  dose dependency of the increase in glucagon secretion: much less pronounced
Example 2, donor AFCS437, all tested concentrations, compared to vehicle at 1 mM glucose (FIG. 10)
  glucagon secretion (effect): only slightly increased glucagon secretion

## N=C(N)NCCC[C@H](N)C(=O)O [L-arginine]
[1]
  increase in glucagon secretion, 1 mM glucose versus 8 mM glucose: higher at 1 mM glucose than at 8 mM glucose
[2]
  glucagon secretion (effect): increased glucagon secretion

## CN1CCC(=C2c3ccccc3C=Cc3ccccc32)CC1 [cyproheptadine hydrochloride]
[1]
  increase in glucagon secretion, 1 mM glucose versus 8 mM glucose: higher at 1 mM glucose than at 8 mM glucose
[2]
  glucagon secretion (effect): increased glucagon secretion
